# Assay results as given in patent US8846948B2, “Compounds” (Boehringer Ingelheim International GmbH, priority 2011, dated 2014).
# Target: T1, human recombinant mGluR5 (Homo sapiens, UniProt P41594)
# T1 construct: expressed in transfected cells; host or cells: HEK 293 cell line, cultured with tetracycline, hygromycin and geneticin
# Test: Positive modulation of mGluR5, calcium based FLIPR assay
# Details: EC50 of the modulation; HEK 293 cell line expressing human recombinant mGluR5; peak height of Ca release fluorescence signal after glutamate at approximately 5% basal stimulation
# Method: The positive modulation of mGluR5 is measured in a HEK 293 cell line expressing human recombinant mGluR5 and is detected with calcium based FLIPR assay. The cells are cultured with DMEM supplemented with 10% FCS, 2 μg/mL tetracycline, 100 μg/mL hygromycin and 500 μg/mL gneticin. The cell culture media is exchanged for tetracycline-free cell culture media 3-7 days before the assay. One day before the assay the cell culture medium is exchanged to DMEM without glutamine and phenol red and supplemented with 10% FCS, 100 μg/mL hygromycin and 500 μg/mL geneticin. On the assay day, the medium of the subconfluent cultures is removed and the cells are detached by addition of 2.5 ml EDTA (0.02%) per 175 cm2 culture flask for 1 minute. The cells are resuspend in Ringer solution (140 mM NaCl, 5 mM KCl, 2.5 mM CaCl2, 1.5 mM MgCl2, 5 mM Glucose, 10 mM Hepes; adjusted to pH 7.4 with NaOH), pooled and Ringer solution added to adjust the volume to 50 mL. The cell suspension is centrifuged for […] at 1500 U/min (425 g). The supernatant is removed and the cells washed a second time with 50 ml fresh Ringer solution and centrifuged again as before. The supernatant is again removed and the pellet resuspended in Ringer solution to 1,000,000 cells/ml (1×10^6 cells/mL). The cells are plated onto BD BioCoat Poly-D-Lysine 384 well plates (20.000 cells/well; 20 μl/well). The lid covered plates are then incubated until use at 37° C./10% CO2. For dye loading, 20 μl of Calcium-4 assay kit solution (prepared according to the manufacturer's description in Ringer solution) are added to the cells and the plates are incubated for […] 37° C. and then […] at room temperature.
# Controls, Compound dilution and assay execution:
# Each assay plate contained wells with “high” and “low” controls:
# Low controls 1% DMSO/ringer solution+basal glutamate activation (defined as 100% CTL).
# High controls 10 μM CDPPB+basal glutamate activation (defined as 200% CTL).
# Test compounds are dissolved and diluted in DMSO to 100-fold the desired concentrations. In a second step, the compounds are diluted in Ringer solution such that the compounds are 4-fold more concentrated than the desired final assay concentration. The final DMSO concentration was 1%.
# 20 μl of each compound solution are then transferred to the assay plate and the Ca2+ kinetic is measured to determine any intrinsic compound activity. After 5 mM incubation in the FLIPR device, the second stimulation with 20 μl of glutamate in Ringer solution (glutamate concentration adjusted to approximately 5% basal stimulation of the maximal possible glutamate effect) is added and the kinetic Ca2+ response of the wells was measured for the modulation effect.
# The peak height of the Ca release related fluorescence signal (9-66) is used for the EC50. The EC50 of the modulation is calculated over a nonlinear regression with GraphPad Prism (Table 1).
# T1 sequence (P41594 21-1212): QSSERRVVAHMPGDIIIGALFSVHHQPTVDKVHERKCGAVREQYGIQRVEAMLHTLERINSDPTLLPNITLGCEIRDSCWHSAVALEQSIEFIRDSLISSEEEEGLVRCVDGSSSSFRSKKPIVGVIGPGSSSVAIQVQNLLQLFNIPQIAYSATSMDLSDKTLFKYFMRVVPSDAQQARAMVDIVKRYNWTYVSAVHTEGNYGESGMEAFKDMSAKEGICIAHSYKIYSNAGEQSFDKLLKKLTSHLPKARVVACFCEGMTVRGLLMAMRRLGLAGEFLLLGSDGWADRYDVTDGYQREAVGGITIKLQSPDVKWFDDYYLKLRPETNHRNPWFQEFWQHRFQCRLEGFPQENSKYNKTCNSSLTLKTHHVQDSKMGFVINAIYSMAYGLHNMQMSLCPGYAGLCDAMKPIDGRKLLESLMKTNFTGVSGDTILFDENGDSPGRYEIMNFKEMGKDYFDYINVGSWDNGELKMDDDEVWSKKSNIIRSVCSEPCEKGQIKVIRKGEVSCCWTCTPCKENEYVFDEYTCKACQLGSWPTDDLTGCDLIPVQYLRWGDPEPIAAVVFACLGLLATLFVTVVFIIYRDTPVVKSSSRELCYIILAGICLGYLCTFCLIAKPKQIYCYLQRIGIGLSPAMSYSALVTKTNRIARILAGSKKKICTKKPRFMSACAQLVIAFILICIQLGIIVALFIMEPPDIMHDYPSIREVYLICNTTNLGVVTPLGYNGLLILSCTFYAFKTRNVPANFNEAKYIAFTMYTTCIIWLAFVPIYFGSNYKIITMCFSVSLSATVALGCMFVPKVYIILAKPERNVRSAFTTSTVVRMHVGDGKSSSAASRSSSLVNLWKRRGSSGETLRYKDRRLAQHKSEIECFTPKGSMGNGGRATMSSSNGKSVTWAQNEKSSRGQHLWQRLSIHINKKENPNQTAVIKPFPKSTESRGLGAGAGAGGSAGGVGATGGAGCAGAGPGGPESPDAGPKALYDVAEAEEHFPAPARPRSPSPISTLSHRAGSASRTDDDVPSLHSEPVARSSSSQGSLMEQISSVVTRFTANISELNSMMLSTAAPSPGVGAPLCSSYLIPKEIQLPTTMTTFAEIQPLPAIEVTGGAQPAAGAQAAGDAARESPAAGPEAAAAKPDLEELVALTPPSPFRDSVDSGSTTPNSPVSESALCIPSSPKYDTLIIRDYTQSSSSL
row,SMILES,EC50
1,"O=C(Cn1cc(-c2ccccc2)nc1-c1ccccc1)N1CCN(c2ncccn2)CC1 [Example 7.01.01., 2-(2,4-Diphenyl-imidazol-1-yl)-1-(4-pyrimidin-2-yl-piperazin-1-yl)-ethanone]",1290 nM
2,COc1ccnc(N2CCN(C(=O)Cn3cc(-c4ccc(F)c(C)c4)nc3-c3ccccc3)CC2)c1 [Example 7.01.02.],84 nM
3,Cc1cc(-c2cn(CC(=O)N3CCN(c4ncccn4)CC3)c(-c3ccccc3)n2)ccc1F [Example 7.01.03.],41 nM
4,Cc1cc(-c2cn(CC(=O)N3CCN(c4cccnn4)CC3)c(-c3ccccc3)n2)ccc1F [Example 7.01.04.],363 nM
5,COc1cc(N2CCN(C(=O)Cn3cc(-c4ccc(F)c(C)c4)nc3-c3ccccc3)CC2)ncn1 [Example 7.01.05.],159 nM
6,Cc1cc(-c2cn(CC(=O)N3CCN(c4ccccn4)CC3)c(-c3ccccc3)n2)ccc1F [Example 7.01.06.],76 nM
7,COc1cnc(N2CCN(C(=O)Cn3cc(-c4ccc(F)c(C)c4)nc3-c3ccccc3)CC2)nc1 [Example 7.01.07.],53 nM
8,Cc1cc(-c2cn(CC(=O)N3CCN(c4ncc(F)cn4)CC3)c(-c3ccccc3)n2)ccc1F [Example 7.01.08.],97 nM
9,COc1cc(N2CCN(C(=O)Cn3cc(-c4ccc(F)c(C)c4)nc3C3CCCCC3)CC2)ncn1 [Example 7.01.09.],1320 nM
10,COc1ccnc(N2CCN(C(=O)Cn3cc(-c4ccc(F)c(C)c4)nc3C3CCCCC3)CC2)c1 [Example 7.01.10.],737 nM
11,Cc1cc(-c2cn(CC(=O)N3CCN(c4ccccn4)CC3)c(C3CCCCC3)n2)ccc1F [Example 7.01.11.],710 nM
12,Cc1cc(-c2cn(CC(=O)N3CCN(c4ncccn4)CC3)c(C3CCCCC3)n2)ccc1F [Example 7.01.12.],458 nM
13,Cc1cc(-c2cn(CC(=O)N3CCN(c4ncnc5[nH]cnc45)CC3)c(C3CCCCC3)n2)ccc1F [Example 7.01.13.],857 nM
14,COc1ccnc(N2CCN(C(=O)Cn3cc(-c4ccc(F)cc4)nc3-c3ccccc3)CC2)c1 [Example 7.01.14.],306 nM
15,O=C(Cn1cc(-c2ccc(F)cc2)nc1-c1ccccc1)N1CCN(c2ncnc3[nH]cnc23)CC1 [Example 7.01.15.],858 nM
16,COc1cc(N2CCN(C(=O)Cn3cc(-c4ccc(F)cc4)nc3-c3ccccc3)CC2)ncn1 [Example 7.01.16.],877 nM
17,O=C(Cn1cc(-c2ccc(F)cc2)nc1-c1ccccc1)N1CCN(c2ccccn2)CC1 [Example 7.01.17.],542 nM
18,COc1cc(N2CCN(C(=O)Cn3cc(-c4ccc(F)c(C)c4)nc3-c3ccc(F)cc3)CC2)ncn1 [Example 7.01.18.],99 nM
19,Cc1cc(-c2cn(CC(=O)N3CCN(c4ncccn4)CC3)c(-c3ccc(F)cc3)n2)ccc1F [Example 7.01.19.],31 nM
20,Cc1cc(-c2cn(CC(=O)N3CCN(c4ncnc5[nH]cnc45)CC3)c(-c3ccc(F)cc3)n2)ccc1F [Example 7.01.20.],73 nM
21,Cc1cc(-c2cn(CC(=O)N3CCN(c4cccnn4)CC3)c(-c3ccc(F)cc3)n2)ccc1F [Example 7.01.22.],144 nM
22,COc1ccnc(N2CCN(C(=O)Cn3cc(-c4ccc(F)c(C)c4)nc3-c3ccc(F)cc3)CC2)c1 [Example 7.01.23.],75 nM
23,Cc1cc(-c2cn(CC(=O)N3CCN(c4ncncn4)CC3)c(-c3ccc(F)cc3)n2)ccc1F [Example 7.01.24.],147 nM
24,COc1cnc(N2CCN(C(=O)Cn3cc(-c4ccc(F)c(C)c4)nc3-c3ccc(F)cc3)CC2)nc1 [Example 7.01.25.],69 nM
25,Cc1cc(-c2cn(CC(=O)N3CCN(c4ncc(F)cn4)CC3)c(-c3ccc(F)cc3)n2)ccc1F [Example 7.01.26.],83 nM
26,COc1cc(N2CCN(C(=O)Cn3cc(-c4ccc(F)cc4)nc3-c3ccc(F)cc3)CC2)ncn1 [Example 7.01.27.],238 nM
27,O=C(Cn1cc(-c2ccc(F)cc2)nc1-c1ccc(F)cc1)N1CCN(c2ncnc3[nH]cnc23)CC1 [Example 7.01.28.],262 nM
28,O=C(Cn1cc(-c2ccc(F)cc2)nc1-c1ccc(F)cc1)N1CCN(c2cccnn2)CC1 [Example 7.01.29.],889 nM

row,SMILES,EC50
1,COc1ccnc(N2CCN(C(=O)Cn3cc(-c4ccc(F)cc4)nc3-c3ccc(F)cc3)CC2)c1 [Example 7.01.30.],168 nM
2,O=C(Cn1cc(-c2ccc(F)cc2)nc1-c1ccc(F)cc1)N1CCN(c2ccccn2)CC1 [Example 7.01.31.],244 nM
3,Cc1cccc(-c2cn(CC(=O)N3CCN(c4ncnc5[nH]cnc45)CC3)c(-c3ccccc3)n2)c1 [Example 7.01.32.],131 nM
4,COc1ccnc(N2CCN(C(=O)Cn3cc(-c4cccc(C)c4)nc3-c3ccccc3)CC2)c1 [Example 7.01.33.],148 nM
5,Cc1cccc(-c2cn(CC(=O)N3CCN(c4cccnn4)CC3)c(-c3ccccc3)n2)c1 [Example 7.01.34.],858 nM
6,Cc1cccc(-c2cn(CC(=O)N3CCN(c4ccccn4)CC3)c(-c3ccccc3)n2)c1 [Example 7.01.35.],73 nM
7,COc1cc(N2CCN(C(=O)Cn3cc(-c4cccc(C)c4)nc3-c3ccccc3)CC2)ncn1 [Example 7.01.36.],196 nM
8,"COc1ccc(-c2cn(CC(=O)N3CCN(c4ccccn4)CC3)c(-c3ccccc3)n2)cc1 [Example 7.02.01., 2-[4-(4-Methoxy-phenyl)-2-phenyl-imidazol-1-yl]-1-(4-pyridin-2-yl-piperazin-1-yl)-ethanone]",464 nM
9,Cc1ccc(-c2nc(-c3ccccc3)cn2CC(=O)N2CCN(c3ccccn3)CC2)cc1 [Example 7.02.02.],1640 nM
10,"O=C(Cn1cc(-c2ccc(F)cc2)nc1-c1ccccc1)N1CCN(c2ncccn2)CC1 [Example 7.03.01., 2-[4-(4-Fluoro-phenyl)-2-phenyl-imidazol-1-yl]-1-(4-pyrimidin-2-yl-piperazin-1-yl)-ethanone]",272 nM
11,Cc1ccc(-c2cn(CC(=O)N3CCN(c4ncccn4)CC3)c(-c3ccccc3)n2)cc1 [Example 7.03.02.],67 nM
12,Cc1cc(-c2cn(CC(=O)N3CCN(c4ncccn4)CC3)c(-c3ccccc3)n2)ccc1Cl [Example 7.03.03.],54 nM
13,O=C(Cn1cc(-c2cccc(F)c2)nc1-c1ccccc1)N1CCN(c2ncccn2)CC1 [Example 7.03.04.],395 nM
14,O=C(Cn1cc(-c2ccc(F)c(Cl)c2)nc1-c1ccccc1)N1CCN(c2ncccn2)CC1 [Example 7.03.05.],87 nM
15,CCOc1ccc(-c2cn(CC(=O)N3CCN(c4ncccn4)CC3)c(-c3ccccc3)n2)cc1 [Example 7.03.06.],680 nM
16,Cc1cc(-c2cn(CC(=O)N3CCN(c4ncccn4)CC3)c(-c3ccccc3)n2)cc(C)c1F [Example 7.03.07.],38 nM
17,CCOc1cccc(-c2cn(CC(=O)N3CCN(c4ncccn4)CC3)c(-c3ccccc3)n2)c1 [Example 7.03.08.],151 nM
18,Cc1ccc(-c2cn(CC(=O)N3CCN(c4ncccn4)CC3)c(-c3ccccc3)n2)cc1Cl [Example 7.03.09.],48 nM
19,O=C(Cn1cc(-c2ccc(F)c(F)c2)nc1-c1ccccc1)N1CCN(c2ncccn2)CC1 [Example 7.03.10.],159 nM
20,CN1CCOc2cc(-c3cn(CC(=O)N4CCN(c5ncccn5)CC4)c(-c4ccccc4)n3)ccc21 [Example 7.03.11.],914 nM
21,COc1cc(-c2cn(CC(=O)N3CCN(c4ncccn4)CC3)c(-c3ccccc3)n2)ccc1C [Example 7.03.12.],29 nM
22,O=C(Cn1cc(-c2cccc(Cl)c2)nc1-c1ccccc1)N1CCN(c2ncccn2)CC1 [Example 7.03.13.],158 nM
23,O=C(Cn1cc(-c2cccc(C(F)(F)F)c2)nc1-c1ccccc1)N1CCN(c2ncccn2)CC1 [Example 7.03.14.],183 nM
24,O=C(Cn1cc(-c2ccc3c(c2)CCCO3)nc1-c1ccccc1)N1CCN(c2ncccn2)CC1 [Example 7.03.15.],61 nM
25,Cn1cnc2ccc(-c3cn(CC(=O)N4CCN(c5ncccn5)CC4)c(-c4ccccc4)n3)cc21 [Example 7.03.16.],1530 nM
26,COc1cc(-c2cn(CC(=O)N3CCN(c4ncccn4)CC3)c(-c3ccccc3)n2)ccc1F [Example 7.03.17.],40 nM
27,CCc1ccc(-c2cn(CC(=O)N3CCN(c4ncccn4)CC3)c(-c3ccccc3)n2)cc1 [Example 7.03.18.],74 nM
